Experimental data published in ChEMBL document CHEMBL5465560, “Selectivity Literature for EUbOPEN Chemogenomic Library” (2024).

Columns and labels:
[1] = target: T1, Serine/threonine-protein kinase Nek11 (Homo sapiens) (UniProt Q8NG66); experiment: Selectivity interaction (Upstate Kinase Profiler service (Millipore)) EUB0000056c NEK11; conditions: at 1 µM
T1 sequence (whole entry): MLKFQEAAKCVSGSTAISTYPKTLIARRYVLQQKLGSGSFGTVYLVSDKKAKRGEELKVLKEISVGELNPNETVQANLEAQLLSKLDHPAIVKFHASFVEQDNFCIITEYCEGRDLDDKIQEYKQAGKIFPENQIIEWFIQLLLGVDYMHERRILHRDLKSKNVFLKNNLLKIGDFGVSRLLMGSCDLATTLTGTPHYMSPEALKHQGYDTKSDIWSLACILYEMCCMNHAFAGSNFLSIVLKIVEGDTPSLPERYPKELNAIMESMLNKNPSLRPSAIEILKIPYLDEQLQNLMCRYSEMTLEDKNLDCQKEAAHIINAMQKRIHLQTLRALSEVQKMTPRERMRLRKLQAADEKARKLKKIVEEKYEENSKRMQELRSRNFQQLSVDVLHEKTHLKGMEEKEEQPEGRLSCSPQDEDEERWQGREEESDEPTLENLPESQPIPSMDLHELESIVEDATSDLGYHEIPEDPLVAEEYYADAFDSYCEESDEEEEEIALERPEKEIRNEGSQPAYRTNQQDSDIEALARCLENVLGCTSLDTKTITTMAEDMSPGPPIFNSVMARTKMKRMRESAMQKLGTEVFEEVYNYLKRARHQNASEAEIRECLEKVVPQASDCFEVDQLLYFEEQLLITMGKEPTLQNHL

[2] = target: Phosphatidylinositol 4-phosphate 5-kinase type-1 gamma (Homo sapiens) (UniProt O60331); experiment: Selectivity interaction (KinomeScan (DiscoverX)) EUB0000666a PIP5K1C; conditions: at 10 µM
[3] = target: Protein kinase C beta type (Homo sapiens, UniProt P05771); experiment: Selectivity interaction (Kinase panel (Invitrogen)) EUB0000639a PRKCB; conditions: at 200 nM
Protein kinase C beta type, sequence (P05771 2-671 limits assumed): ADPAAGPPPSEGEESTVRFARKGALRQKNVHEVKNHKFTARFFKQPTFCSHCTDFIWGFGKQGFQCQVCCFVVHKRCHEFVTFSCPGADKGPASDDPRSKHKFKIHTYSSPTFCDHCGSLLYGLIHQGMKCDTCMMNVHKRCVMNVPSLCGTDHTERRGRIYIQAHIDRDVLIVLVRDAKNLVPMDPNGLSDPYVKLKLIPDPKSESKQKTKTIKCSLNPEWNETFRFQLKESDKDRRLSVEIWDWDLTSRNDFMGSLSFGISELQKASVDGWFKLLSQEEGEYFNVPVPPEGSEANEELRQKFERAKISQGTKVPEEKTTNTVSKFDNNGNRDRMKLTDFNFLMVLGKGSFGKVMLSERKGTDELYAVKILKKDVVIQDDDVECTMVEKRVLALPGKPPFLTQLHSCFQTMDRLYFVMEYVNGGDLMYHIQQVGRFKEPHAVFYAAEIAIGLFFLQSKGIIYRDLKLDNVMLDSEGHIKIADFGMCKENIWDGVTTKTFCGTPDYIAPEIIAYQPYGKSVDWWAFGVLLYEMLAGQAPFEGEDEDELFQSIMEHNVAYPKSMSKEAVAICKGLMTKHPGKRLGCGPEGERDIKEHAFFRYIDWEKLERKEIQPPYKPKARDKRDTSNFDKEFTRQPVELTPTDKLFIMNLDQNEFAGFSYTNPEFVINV

[4] = test system: Phosphatidylinositol 4,5-bisphosphate 3-kinase catalytic subunit alpha isoform (Homo sapiens), P42336 [Q546K]; conditions: at 10 µM
Phosphatidylinositol 4,5-bisphosphate 3-kinase catalytic subunit alpha isoform (Homo sapiens), P42336 [Q546K], sequence (P42336 whole entry Q546K, canonical isoform): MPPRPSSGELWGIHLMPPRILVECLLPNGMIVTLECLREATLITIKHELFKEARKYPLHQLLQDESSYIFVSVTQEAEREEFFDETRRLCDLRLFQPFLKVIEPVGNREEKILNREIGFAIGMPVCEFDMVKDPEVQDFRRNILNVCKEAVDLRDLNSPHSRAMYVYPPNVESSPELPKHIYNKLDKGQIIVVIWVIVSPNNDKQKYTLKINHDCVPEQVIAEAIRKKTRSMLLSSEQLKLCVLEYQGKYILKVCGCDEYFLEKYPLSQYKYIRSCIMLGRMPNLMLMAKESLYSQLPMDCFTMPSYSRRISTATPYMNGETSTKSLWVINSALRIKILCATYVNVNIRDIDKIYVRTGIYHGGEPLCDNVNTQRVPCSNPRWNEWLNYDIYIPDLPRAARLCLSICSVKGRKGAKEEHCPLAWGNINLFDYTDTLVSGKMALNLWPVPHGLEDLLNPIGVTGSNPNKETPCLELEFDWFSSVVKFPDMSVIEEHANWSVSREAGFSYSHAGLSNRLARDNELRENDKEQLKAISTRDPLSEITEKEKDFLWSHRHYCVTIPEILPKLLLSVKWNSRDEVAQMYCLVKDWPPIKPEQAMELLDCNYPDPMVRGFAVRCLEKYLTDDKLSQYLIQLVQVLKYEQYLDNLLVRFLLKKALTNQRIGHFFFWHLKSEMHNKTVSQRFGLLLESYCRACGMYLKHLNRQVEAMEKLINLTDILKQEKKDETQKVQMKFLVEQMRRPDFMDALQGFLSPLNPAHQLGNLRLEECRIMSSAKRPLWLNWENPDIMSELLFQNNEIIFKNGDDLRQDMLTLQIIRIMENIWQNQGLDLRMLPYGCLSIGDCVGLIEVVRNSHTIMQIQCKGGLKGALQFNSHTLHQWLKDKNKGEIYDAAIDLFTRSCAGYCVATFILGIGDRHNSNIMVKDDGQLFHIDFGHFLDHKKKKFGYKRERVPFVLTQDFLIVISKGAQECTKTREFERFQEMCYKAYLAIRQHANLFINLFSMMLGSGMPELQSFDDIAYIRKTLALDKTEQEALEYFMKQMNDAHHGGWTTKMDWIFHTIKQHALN

[5] = target: T2, Dual specificity tyrosine-phosphorylation-regulated kinase 2 (Homo sapiens) (UniProt Q92630); experiment: Selectivity interaction (KinomeScan (DiscoverX)) EUB0000595a DYRK2; conditions: at 10 µM
T2 sequence (whole entry): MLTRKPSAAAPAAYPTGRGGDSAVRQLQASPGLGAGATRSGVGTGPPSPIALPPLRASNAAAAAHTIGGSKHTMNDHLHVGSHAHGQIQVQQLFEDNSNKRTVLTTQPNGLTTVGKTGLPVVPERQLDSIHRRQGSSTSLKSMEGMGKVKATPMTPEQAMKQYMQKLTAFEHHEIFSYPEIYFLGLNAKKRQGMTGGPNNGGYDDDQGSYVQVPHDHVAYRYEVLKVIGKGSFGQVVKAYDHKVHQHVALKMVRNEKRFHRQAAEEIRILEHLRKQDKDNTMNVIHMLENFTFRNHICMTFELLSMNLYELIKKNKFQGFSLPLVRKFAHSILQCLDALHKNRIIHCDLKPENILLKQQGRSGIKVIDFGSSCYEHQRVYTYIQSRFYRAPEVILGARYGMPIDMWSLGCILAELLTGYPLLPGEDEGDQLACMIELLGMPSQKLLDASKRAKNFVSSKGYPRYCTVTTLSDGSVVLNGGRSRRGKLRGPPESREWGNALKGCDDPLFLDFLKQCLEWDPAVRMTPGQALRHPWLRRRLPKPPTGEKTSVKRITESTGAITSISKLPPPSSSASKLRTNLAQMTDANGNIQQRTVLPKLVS

[6] = target: Serine/threonine-protein kinase PAK 1 (Homo sapiens) (UniProt Q13153); experiment: Selectivity interaction (KinomeScan (DiscoverX)) EUB0000595a PAK1; conditions: at 10 µM
Serine/threonine-protein kinase PAK 1 (Homo sapiens), sequence (Q13153 whole entry): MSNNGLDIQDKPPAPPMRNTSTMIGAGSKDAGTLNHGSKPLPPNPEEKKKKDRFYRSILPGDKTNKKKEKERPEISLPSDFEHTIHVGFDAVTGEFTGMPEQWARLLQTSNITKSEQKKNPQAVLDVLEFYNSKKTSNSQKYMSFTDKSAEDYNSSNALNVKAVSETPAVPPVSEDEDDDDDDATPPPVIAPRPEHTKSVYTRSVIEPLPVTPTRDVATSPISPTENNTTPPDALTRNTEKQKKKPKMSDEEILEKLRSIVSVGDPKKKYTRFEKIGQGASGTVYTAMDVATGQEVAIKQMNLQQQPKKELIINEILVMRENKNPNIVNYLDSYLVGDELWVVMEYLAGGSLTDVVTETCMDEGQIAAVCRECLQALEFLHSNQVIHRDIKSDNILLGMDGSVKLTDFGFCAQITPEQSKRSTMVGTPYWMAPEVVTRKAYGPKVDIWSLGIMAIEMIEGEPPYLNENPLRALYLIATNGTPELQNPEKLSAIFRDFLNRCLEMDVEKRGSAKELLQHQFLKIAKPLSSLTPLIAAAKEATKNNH

[7] = target: Serine/threonine-protein kinase 24 (Homo sapiens) (UniProt Q9Y6E0); experiment: Selectivity interaction (KinomeScan (DiscoverX)) EUB0000045b STK24
Serine/threonine-protein kinase 24 (Homo sapiens), sequence (Q9Y6E0 whole entry, looked up, canonical isoform): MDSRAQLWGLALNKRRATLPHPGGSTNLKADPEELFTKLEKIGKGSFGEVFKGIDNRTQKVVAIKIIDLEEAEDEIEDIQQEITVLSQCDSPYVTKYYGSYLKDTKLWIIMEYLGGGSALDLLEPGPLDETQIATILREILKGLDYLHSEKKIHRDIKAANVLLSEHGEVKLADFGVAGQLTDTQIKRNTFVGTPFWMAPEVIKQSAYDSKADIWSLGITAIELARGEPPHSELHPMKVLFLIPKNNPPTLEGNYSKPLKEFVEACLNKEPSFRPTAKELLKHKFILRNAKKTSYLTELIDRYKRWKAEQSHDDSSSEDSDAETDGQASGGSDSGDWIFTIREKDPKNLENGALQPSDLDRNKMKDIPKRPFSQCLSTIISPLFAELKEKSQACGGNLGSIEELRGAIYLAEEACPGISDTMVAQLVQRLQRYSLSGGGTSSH

[8] = target: Phosphorylase b kinase gamma catalytic chain, skeletal muscle/heart isoform (Homo sapiens) (UniProt Q16816); experiment: Selectivity interaction (Ambit KINOMEscan and KiNATiv profiling in Jurkat cells) EUB0000090b PHKG1; format: cell-based; conditions: at 1 µM
Phosphorylase b kinase gamma catalytic chain, skeletal muscle/heart isoform (Homo sapiens), sequence (Q16816 whole entry, looked up, canonical isoform): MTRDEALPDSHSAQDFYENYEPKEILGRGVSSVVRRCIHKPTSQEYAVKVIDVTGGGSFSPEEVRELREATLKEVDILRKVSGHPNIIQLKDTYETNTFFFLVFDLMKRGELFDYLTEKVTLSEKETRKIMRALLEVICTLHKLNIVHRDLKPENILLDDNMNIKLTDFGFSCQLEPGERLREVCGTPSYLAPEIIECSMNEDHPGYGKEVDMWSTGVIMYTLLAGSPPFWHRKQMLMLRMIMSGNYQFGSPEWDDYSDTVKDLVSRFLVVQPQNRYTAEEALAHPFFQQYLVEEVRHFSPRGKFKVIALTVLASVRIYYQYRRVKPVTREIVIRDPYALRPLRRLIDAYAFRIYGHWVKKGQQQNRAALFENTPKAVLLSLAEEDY

[9] = target: Macrophage colony-stimulating factor 1 receptor (Homo sapiens) (UniProt P07333); experiment: Selectivity interaction (KinomeScan (DiscoverX)) EUB0001619a CSF1R; conditions: at 1 µM
Macrophage colony-stimulating factor 1 receptor (Homo sapiens), sequence (P07333 whole entry): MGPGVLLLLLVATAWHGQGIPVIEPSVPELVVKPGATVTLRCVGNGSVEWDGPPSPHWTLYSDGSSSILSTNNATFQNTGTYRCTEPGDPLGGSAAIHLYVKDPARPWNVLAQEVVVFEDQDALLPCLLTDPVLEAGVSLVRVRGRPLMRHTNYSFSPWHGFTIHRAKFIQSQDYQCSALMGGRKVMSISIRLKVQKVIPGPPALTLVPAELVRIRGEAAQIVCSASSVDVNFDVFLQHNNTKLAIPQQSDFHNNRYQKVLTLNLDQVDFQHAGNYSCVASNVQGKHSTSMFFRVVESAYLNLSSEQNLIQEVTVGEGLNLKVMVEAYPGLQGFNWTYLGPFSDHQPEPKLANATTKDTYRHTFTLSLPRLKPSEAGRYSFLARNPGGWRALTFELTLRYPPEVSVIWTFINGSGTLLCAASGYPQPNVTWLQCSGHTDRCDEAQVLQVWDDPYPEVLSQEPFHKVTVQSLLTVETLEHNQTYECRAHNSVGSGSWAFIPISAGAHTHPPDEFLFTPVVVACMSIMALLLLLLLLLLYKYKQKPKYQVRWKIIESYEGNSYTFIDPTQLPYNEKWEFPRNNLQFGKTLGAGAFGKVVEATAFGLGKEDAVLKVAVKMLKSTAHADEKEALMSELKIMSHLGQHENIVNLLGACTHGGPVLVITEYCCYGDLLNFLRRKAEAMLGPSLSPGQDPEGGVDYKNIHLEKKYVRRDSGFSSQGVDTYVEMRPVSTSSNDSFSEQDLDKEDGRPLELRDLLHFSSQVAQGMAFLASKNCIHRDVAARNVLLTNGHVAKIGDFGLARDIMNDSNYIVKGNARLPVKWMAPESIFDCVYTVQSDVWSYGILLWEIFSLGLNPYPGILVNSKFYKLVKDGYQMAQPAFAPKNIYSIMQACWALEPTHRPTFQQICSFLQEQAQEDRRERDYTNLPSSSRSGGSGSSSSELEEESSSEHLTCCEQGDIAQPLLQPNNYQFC

[10] = target: T3, Ephrin type-B receptor 4 (Homo sapiens) (UniProt P54760); experiment: Selectivity interaction (KinomeScan (DiscoverX)) EUB0001619a EPHB4; conditions: at 1 µM
T3 sequence (whole entry): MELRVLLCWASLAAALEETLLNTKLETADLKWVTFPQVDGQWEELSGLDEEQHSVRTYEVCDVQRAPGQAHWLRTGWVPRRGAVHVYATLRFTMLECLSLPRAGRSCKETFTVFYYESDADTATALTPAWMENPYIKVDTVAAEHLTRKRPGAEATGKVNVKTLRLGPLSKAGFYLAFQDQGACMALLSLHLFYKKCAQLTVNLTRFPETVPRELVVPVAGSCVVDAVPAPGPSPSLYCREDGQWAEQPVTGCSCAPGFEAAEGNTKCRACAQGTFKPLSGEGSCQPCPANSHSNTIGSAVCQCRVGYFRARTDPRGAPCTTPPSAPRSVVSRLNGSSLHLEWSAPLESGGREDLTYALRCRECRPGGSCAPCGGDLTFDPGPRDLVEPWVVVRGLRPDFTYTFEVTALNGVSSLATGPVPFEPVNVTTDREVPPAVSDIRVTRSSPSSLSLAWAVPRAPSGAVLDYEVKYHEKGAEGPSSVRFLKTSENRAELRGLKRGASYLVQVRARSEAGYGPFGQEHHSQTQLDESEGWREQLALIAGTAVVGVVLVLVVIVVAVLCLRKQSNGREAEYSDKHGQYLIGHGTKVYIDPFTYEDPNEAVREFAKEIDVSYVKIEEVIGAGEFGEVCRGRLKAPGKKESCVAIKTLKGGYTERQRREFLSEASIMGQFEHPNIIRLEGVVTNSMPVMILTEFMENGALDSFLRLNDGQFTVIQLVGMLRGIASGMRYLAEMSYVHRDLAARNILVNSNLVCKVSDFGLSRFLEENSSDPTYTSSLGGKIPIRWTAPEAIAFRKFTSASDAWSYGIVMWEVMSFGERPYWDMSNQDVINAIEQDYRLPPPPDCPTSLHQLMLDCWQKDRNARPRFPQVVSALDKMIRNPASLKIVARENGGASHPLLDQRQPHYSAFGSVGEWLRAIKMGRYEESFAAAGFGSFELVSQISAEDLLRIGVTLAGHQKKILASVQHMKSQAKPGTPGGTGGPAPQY

[11] = target: Serine/threonine-protein kinase 35 (Homo sapiens) (UniProt Q8TDR2); experiment: Selectivity interaction (KinomeScan (DiscoverX)) EUB0001619a STK35; conditions: at 1 µM
Serine/threonine-protein kinase 35 (Homo sapiens), sequence (Q8TDR2 whole entry): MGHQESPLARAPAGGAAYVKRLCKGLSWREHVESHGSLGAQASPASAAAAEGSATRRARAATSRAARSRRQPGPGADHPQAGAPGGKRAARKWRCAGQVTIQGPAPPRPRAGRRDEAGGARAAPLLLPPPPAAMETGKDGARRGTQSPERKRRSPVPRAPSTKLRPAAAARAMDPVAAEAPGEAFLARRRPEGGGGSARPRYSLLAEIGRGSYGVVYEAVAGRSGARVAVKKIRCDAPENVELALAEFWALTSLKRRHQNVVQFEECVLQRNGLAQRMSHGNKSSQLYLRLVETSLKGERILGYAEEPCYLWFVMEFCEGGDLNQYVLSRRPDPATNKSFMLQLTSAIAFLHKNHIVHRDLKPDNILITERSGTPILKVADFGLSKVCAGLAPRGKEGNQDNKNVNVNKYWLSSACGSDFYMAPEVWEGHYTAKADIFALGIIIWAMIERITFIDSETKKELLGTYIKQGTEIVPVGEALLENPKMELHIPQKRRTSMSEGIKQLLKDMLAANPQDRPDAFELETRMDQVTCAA

In the case of Cc1ccc(-c2ccc3c(ccc4sc5c(c43)NC[C@@H](C)NC5=O)n2)cn1, the % of inhibition [1] is reported as -11%.
O=C(NOC[C@H](O)CO)c1ccc(F)c(F)c1Nc1ccc(I)cc1F gave a % of control [2] of 100%.
In the case of CC[C@@H]1[C@H](F)C(=O)N[C@@H]1COc1nccc2cc(C(N)=O)c(OC)cc12 [ZIMLOVISERTIB], the % of inhibition [3] is reported as 6.06%.
In the case of CNC(=O)Nc1ccc(-c2nc(N3CC4CCC(C3)O4)c3cnn(C4CCC5(CC4)OCCO5)c3n2)cc1, the % of control [4] is reported as 11%.
Compound COCC(=O)NC/C=C/c1ccc2ncnc(Nc3ccc(Oc4ccc(C)nc4)c(C)c3)c2c1 [CP-724714] has a % of control [5] of 100% and a % of control [6] of 81%.
Work on C=CC(=O)Nc1cc(-n2c(=O)ccc3cnc4ccc(-c5ccc(NS(C)(=O)=O)cc5)cc4c32)ccc1C yielded a % of control ([7]; at 1 µM) of 100% and a % of control ([7]; at 10 µM) of 93%.
For CN(C)C/C=C/C(=O)Nc1ccc(C(=O)N2CCCC(Nc3ncc(Cl)c(-c4c[nH]c5ccccc45)n3)C2)cc1 (configuration not stated), the % of control [8] was 87%.
Compound N#Cc1cccc(-c2c[nH]c3ncnc(N4CCOCC4)c23)c1 has a % of control [9] of 87%, a % of control [10] of 100% and a % of control [11] of 62%.
